Like-named read-outs stand apart in the source and are kept apart here.
Legend:
ERK1,2 phosphorylation = test: ERK1/2 phosphorylation ELISA, OVCAR-3 cells; type: cell-based, human; settings: for Vmax ± SE, pERK 1/2 inhibition: Michaelis Menten model; for IC50: Homo sapiens, read-out: IC50, pERK 1/2 inhibition
[1] = test system: SKOV-3 human ovarian adenocarcinoma xenograft; design: species or system CB17 SCID mice; settings: mouse, in vivo; for Cures (mice alive for 120 days after tumor inoculation) / MST (mean survival time) / T/C% (mean survival time of treated versus saline controls) / TI% (Tumor Inhibition) / size of the primary tumor: ip; for MST (mean survival time): test concentration or dose not given here; for TI% (Tumor Inhibition): test concentration or dose not given here
in vivo = settings: both, CB17 SCID, mouse, ip

Structure (SMILES)	Vmax ± SE, pERK 1/2 inhibition (ERK1,2 phosphorylation; 15 min)	Vmax ± SE, pERK 1/2 inhibition (ERK1,2 phosphorylation; 30 min)	Vmax ± SE, pERK 1/2 inhibition (ERK1,2 phosphorylation; 60 min)	IC50 (ERK1,2 phosphorylation; 0.25 h, 15 min)	IC50 (ERK1,2 phosphorylation; 0.5 h, 30 min)	IC50 (ERK1,2 phosphorylation; 1 h, 60 min)	Median Overall Survival (OS) [1]	Progression Free Survival (PFS) [1]	Response Rate (RR) [1]	Cures (mice alive for 120 days after tumor inoculation) [1]	MST (mean survival time) [1]	T/C% (mean survival time of treated versus saline controls) [1]	TI% (Tumor Inhibition) [1]	size of the primary tumor [1]	LD50 (in vivo)
C[C@]12CC[C@H]3[C@@H](CCC4=CC(=O)NCC[C@@]43C)[C@@H]1CC[C@@H]2OC(=O)CCOc1ccc(N(CCCl)CCCl)cc1 [ENGA-L06E, 5a,7a-dimethyl-2-oxo-2,3,4,5,5a,5b,6,7,7a,8,9,10,10a,10b,11,12-hexa decahydrocyclopenta [5, 6] naphtho [1,2-d] azepin-8-yl 3-(4-(bis(2-chloroethyl)amino)phenoxy) propanoate]	53.57 ± 3.41	80.62 ± 1.98	93.91 ± 3.61	49 µM	14.5 µM	12.8 µM	112 days	11 days	100%	2/5	79.6 ± 4.0 p < 0.01 Days	195.6%	67.6%	478 ± 18.3 mm^3	
C[C@]12CC[C@@H]3c4ccc(OC(=O)CCOc5ccc(N(CCCl)CCCl)cc5)cc4CC[C@H]3[C@@H]1CCC(=O)N2 [ENGA-L08E, 12a-methyl-2-oxo-1,2,3,4,4a,4b,5,6,10b,11,12,12a-dodecahydronaphtho[2,1-f]quinolin-8-yl 3-(4-(bis (2-chloroethyl)amino)phenoxy) propanoate]	56.77 ± 0.49	61.29 ± 1.88	63.79 ± 1.33	48.9 µM	17.8 µM	9.51 µM	105 days	13 days	100%	2/5	76.5 ± 3.9 p < 0.01 Days	187.9%	76.4%	390 ± 21.4 mm^3	95 mg/kg

From article PMC7281072 (Cancers, 2020)
